Assay results taken from PMC3618987, “From BACE1 Inhibitor to Multifunctionality of Tryptoline and Tryptamine Triazole Derivatives for Alzheimer’s Disease” (Molecules, 2012).
“Also recorded” adds a separate entry of the source.

Legend:
[1] = Fe (II) chelation capacity assay (ferrozine)
Protocol: An aqueous solution of 0.2 mM ferrous sulphate was prepared. Fifty microliters of this solution was added to 96 well plate, then 40 µL of 500 µM of test compounds in 50% DMSO were added to each well followed by DI water to adjust the volume to 150 µL. The mixtures were incubated at room temperature for 10 min. After incubation, 50 µL of 1 mM ferrozine (Sigma) was added to the reaction mixture. The absorbance was measured at 562 nm by using infinite 200 pro^TM, Tecan. EDTA was used as a positive control. Chelation capacity of each compounds were calculated. Compounds having chelating capacity over than 50% were evaluated for stoichiometric ratio of compound: metal.

β-Secretase (BACE1) = target: T1, β-Secretase (BACE1) (Homo sapiens, UniProt P56817); test: β-Secretase inhibition assay (fluorogenic substrate IV); format: biochemical; details: for inhibition at 25 µM: read-out: BACE1 % Inhibition (at 25 µM) (±SEM)
T1 construct: purchased Sino Biological
T1 sequence (P56817 46-501): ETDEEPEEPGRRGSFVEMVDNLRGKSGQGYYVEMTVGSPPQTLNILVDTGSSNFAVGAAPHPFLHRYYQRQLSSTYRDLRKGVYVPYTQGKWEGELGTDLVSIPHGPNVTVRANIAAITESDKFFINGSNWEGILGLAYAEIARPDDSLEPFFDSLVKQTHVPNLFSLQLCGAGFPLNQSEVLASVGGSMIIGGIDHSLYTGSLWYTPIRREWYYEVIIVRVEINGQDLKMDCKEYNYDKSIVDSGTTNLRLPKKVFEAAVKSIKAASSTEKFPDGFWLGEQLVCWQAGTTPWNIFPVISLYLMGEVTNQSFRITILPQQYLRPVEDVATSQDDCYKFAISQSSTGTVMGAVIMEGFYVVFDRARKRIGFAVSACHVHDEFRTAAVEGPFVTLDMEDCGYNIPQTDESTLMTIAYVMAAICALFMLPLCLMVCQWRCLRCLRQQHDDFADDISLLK
Protocol: β-Secretase enzyme was reconstituted with 50 mM Tris (pH 7.5), 10% glycerol to yield concentration of 0.5 unit/µL. The enzyme stock solution was diluted with 100 mM sodium acetate buffer (pH 4.5) to 0.01 unit/µL. Thirty microliters of enzyme solution were added to each well that contained 20 µL of 5% DMSO of test compound. Then, fifty microliters of 50 µM β-secretase substrate IV from Calbiochem were added to the reaction plate. […] The assays were run in triplicate.

amyloid-β (1-42) peptide [2] = target: T2, amyloid-β (1-42) peptide (Homo sapiens, UniProt P05067); test: Amyloid β aggregation assay (ThT fluorescence); format: biochemical; details: Aβ(1-42), 48 h; for inhibition at 100 µM: read-out: Anti-Aβ aggregation % Inhibition (at 100 µM) (±SEM)
T2 construct: Stock solution of amyloid-β (1-42) peptide (Anaspec; 1384 µM in 1% NH4OH); purchased Anaspec
T2 sequence (P05067 672-713 limits assumed): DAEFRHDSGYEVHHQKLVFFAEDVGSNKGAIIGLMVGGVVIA
Protocol: Nine microliters amyloid-β solution was added to a greiner transparent 96 well plate. One microliter of each test compounds (1,000 µM in DMSO) were added to each well and mixed gently by tapping. The final concentrations of each compound were 100 µM in 10% DMSO. The reaction plate was incubated in dark at 37 °C for 48 h. After incubation, 200 µL of 5 µM ThT (Sigma) in 50 mM Tris buffer (pH 7.4) was added to each well. The fluorescence was measured at Ex = 446 nm and Em = 490 nm by using SpectraMax Gemini EM^TM [30]. The assays were run in triplicate.

[3] = Free radical scavenging assay (DPPH)
Protocol: The test samples were prepared in 50% DMSO at 500 µM. Seventy microliters of DPPH solution (500 µM in methanol) was added to 96 well plate. The assay mixture was adjusted to 80 µL volume by methanol. After adjusting the volume, 20 µL of test compounds was added to each well. The reaction plate was incubated at room temperature in dark for 30 min. The absorbance was measured at 517 nm by using infinite 200 pro^TM, Tecan. Ascorbic acid was used as a positive control. Percent inhibition was calculated and compounds showing activity were evaluated for the IC50 values.

amyloid-β (1-42) peptide [4] = target: T2, amyloid-β (1-42) peptide; test: Amyloid β aggregation assay (ThT fluorescence); format: biochemical; details: Aβ(1-42), read-out: Anti-Aβ aggregation IC50
SH-SY5Y cells = test: Protection against Aβ1-42 induced neuronal cell death, MTT viability assay; format: cell-based; details: compound 1 μM
Protocol: The SH-SY5Y cells were cultured in a medium containing minimum essential medium (MEM): F-12 (1:1), 10% fetal bovine serum, MEM non-essential amino acids (0.5×), 0.5 mM sodium pyruvate and 100 units/ml of penicillin and 100 μg/mL of streptomycin. The cells were maintained under a humidified incubator with 5% CO2 in air at 37 °C.
SH-SY5Y cells were seeded in 96-well plates (2 × 10^4 cells per well) for 24 h. […] The aggregated β-amyloid was prepared by incubating in a medium without serum, penicillin and streptomycin at 37 °C for 72 h. The cells treated with aggregated β-amyloid were incubated for 24 h, 15 µL of MTT reagent (5 mg/mL MTT in serum free medium containing […]) was added to each well and incubated at 37 °C for 3 h. The medium was removed from each well. One hundred microlitres of 0.04 N HCl in isopropanol was added to each well to dissolve blue formazan crystals, which is the product of MTT catalyzed by mitochondrial dehydrogenase. The absorbance was measured at 570/630 nm using a Synergy^TM HT multi-detection microplate reader (Bio-Tek Instruments, Winooski, VT, USA).

Molecule	Fe chelation % Capacity (at 100 µM) (±SEM) [1]	inhibition at 25 µM (β-Secretase (BACE1)) [%]	inhibition at 100 µM (amyloid-β (1-42) peptide [2]) [%]	DPPH % Inhibition (at 100 µM) (±SEM) [3]	also measured
N[C@@H](Cc1c[nH]c2ccccc12)Cn1cc(CNC(=O)CCc2ccc(O)cc2)nn1 [Compound 12e, (S)-N-((1-(2-Amino-3-(1H-indol-3-yl)propyl)-1H-1,2,3-triazol-4-yl)methyl)-3-(4-hydroxyphenyl)propanamide]	41.42 (±1.13) %	7.53	36	–	–
O=C(CCc1ccc(O)cc1)NCc1cn(C[C@@H]2Cc3c([nH]c4ccccc34)CN2)nn1 [Compound 6e, (S)-3-((4-(N-(((4-Hydroxyphenyl)propanoyl)azyl)methyl)-1H-1,2,3-triazol-1-yl)methyl)-2,3,4,9-tetra-hydro-1H-pyrido[3,4-b]ind ole]	20.63 (±0.35) %	12.6	–	5.45 (±0.33) %	–
O=C1O[C@H]([C@@H](O)CO)C(O)=C1O [Ascorbic acid, reference compound]	–	–	–	53.64 (±0.11) %	IC50 [3]: 94.9 µM
(S)-1-(1H-Indol-3-yl)-3-(4-(6-methoxynaphthalen-2-yl)-1H-1,2,3-triazol-1-yl)propan-2-amine [Compound 12b]	10.54 (±0.22) %	–	–	–	BACE1 % Inhibition (at 25 µM) (±SEM) (β-Secretase (BACE1); 25 µM): 30.42 (±3.54) %; Anti-Aβ aggregation % Inhibition (at 100 µM) (±SEM) (amyloid-β (1-42) peptide [2]): 34.02 (±10.13) %
CC(C)(C)c1ccc(-c2cn(C[C@@H](N)Cc3c[nH]c4ccccc34)nn2)cc1 [Compound 12a, (S)-1-(4-(4-tert-Butylphenyl)-1H-1,2,3-triazol-1-yl)-3-(1H-indol-3-yl)propan-2-amine]	42.65 (±1.07) %	18.9	17.8	–	–
N[C@@H](Cc1c[nH]c2ccccc12)Cn1cc(CNC(=O)c2ccccc2C(=O)c2ccc(O)cc2)nn1 [Compound 12d, (S)-N-((1-(2-Amino-3-(1H-indol-3-yl)propyl)-1H-1,2,3-triazol-4-yl)methyl)-2-(4-hydroxybenzoyl)-benzamide]	13.87 (±0.59) %	33	–	1.56 (±0.51) %	IC50 (amyloid-β (1-42) peptide [4]): 47.5 µM
O=C(NCc1cn(C[C@@H]2Cc3c([nH]c4ccccc34)CN2)nn1)c1ccccc1C(=O)c1ccc(O)cc1 [Compound 6d]	32.86 (±0.19) %	14.1	–	2.81 (±0.37) %	–
Clc1ccc(-c2cn(C[C@@H]3Cc4c([nH]c5ccccc45)CN3)nn2)cc1Cl [Compound 6c, (S)-3-((4-(3,4-Dichlorophenyl)-1H-1,2,3-triazol-1-yl)methyl)-2,3,4,9-tetrahydro-1H-pyrido[3,4-b]-indole]	15.88 (±0.21) %	78.9	10.1	–	IC50 (β-Secretase (BACE1)): 18 µM
C[C@@H](NC(=O)c1cc(C(=O)N[C@@H](Cc2ccccc2)[C@H](O)CNC2CC2)cc(N(C)S(C)(=O)=O)c1)c1ccccc1 [Inh IV, reference compound]	–	–	–	–	Protective effect against Aβ1-42 induced neuronal cell death (MTT viability) (SH-SY5Y cells): improved cell viability
COc1cc(/C=C/C(=O)CC(=O)/C=C/c2ccc(O)c(OC)c2)ccc1O [Curcumin, reference compound]	–	–	82.9	–	–
O=C(O)CN(CCN(CC(=O)O)CC(=O)O)CC(=O)O [EDTA, reference compound]	98.00 (±0.34) %	–	–	–	–
O=C(/C=C/c1ccc(O)c(O)c1)NCc1cn(C[C@@H]2Cc3c([nH]c4ccccc34)CN2)nn1 [Compound 6h, (S)-3-((4-(N-(((E)-(3,4-Dihydroxyphenyl)propenoyl)azyl)methyl)-1H-1,2,3-triazol-1-yl)methyl)-2,3,4,9-tetrahydro-1H-pyrido[3,4-b]indole]	42.74 (±0.30) %	21.7	–	92.29 (±0.02) %	IC50 (amyloid-β (1-42) peptide [4]): 29.9 µM; Protective effect against Aβ1-42 induced neuronal cell death (MTT viability) (SH-SY5Y cells): significantly greater than those of the potent single target compound, BACE1 inhibitor IV; also recorded: decrease cell death to a greater extent than BACE1 inhibitor IV; also recorded: better than that of single targeted ligands; IC50 [3]: 42.9 µM
COc1cc(/C=C/C(=O)NCc2cn(C[C@@H]3Cc4c([nH]c5ccccc45)CN3)nn2)ccc1O [Compound 6g, (S)-3-((4-(N-(((E)-(3-Methoxy-4-hydroxyphenyl)propenoyl)azyl)methyl)-1H-1,2,3-triazol-1-yl)-methyl)-2,3,4,9-tetrahydro-1H-pyrido[3,4-b]indole]	8.88 (±0.25) %	21.1	> 50	47.03 (±0.12) %	IC50 (amyloid-β (1-42) peptide [4]): 82.9 µM; IC50 [3]: 106 µM
O=C(NCc1cn(C[C@@H]2Cc3c([nH]c4ccccc34)CN2)nn1)c1cc(O)cc(O)c1 [Compound 6f, (S)-3-((4-(((N-(3,5-Dihydroxy)benzoyl)azyl)methyl)-1H-1,2,3-triazol-1-yl)methyl)-2,3,4,9-tetrahydro-1H-pyrido[3,4-b]indole]	5.80 (±0.04) %	21.3	–	–	melting point: 180 to 182 °C
COc1ccc2cc(-c3cn(C[C@@H]4Cc5c([nH]c6ccccc56)CN4)nn3)ccc2c1 [Compound 6b, (S)-3-((4-(6-Methoxynaphthalen-2-yl)-1H-1,2,3-triazol-1-yl)me-thyl)-2,3,4,9-tetrahydro-1H-pyrido-[3,4-b]indole]	12.35 (±0.68) %	73.6	7.19	–	IC50 (β-Secretase (BACE1)): 18.9 µM
N[C@@H](Cc1c[nH]c2ccccc12)Cn1cc(CNC(=O)/C=C/c2ccc(O)c(O)c2)nn1 [Compound 12h, (S,E)-N-((1-(2-Amino-3-(1H-indol-3-yl)propyl)-1H-1,2,3-triazol-4-yl)methyl)-3-(3,4-dihydroxy-phenyl)acrylamide]	–	40	–	50.58 (±0.17) %	IC50 (amyloid-β (1-42) peptide [4]): 56.4 µM; Protective effect against Aβ1-42 induced neuronal cell death (MTT viability) (SH-SY5Y cells): significantly greater than those of the potent single target compound, BACE1 inhibitor IV; also recorded: decrease cell death to a greater extent than BACE1 inhibitor IV; also recorded: better than that of single targeted ligands; IC50 [3]: 92.7 µM
CC(C)(C)c1ccc(-c2cn(C[C@@H]3Cc4c([nH]c5ccccc45)CN3)nn2)cc1 [Compound 6a, (S)-3-((4-(4-tert-Butylphenyl)-1H-1,2,3-triazol-1-yl)methyl)-2,3,4,9-tetrahydro-1H-pyrido[3,4-b] indole]	9.67 (±0.32) %	68	–	–	IC50 (β-Secretase (BACE1)): 19.8 µM
N[C@@H](Cc1c[nH]c2ccccc12)Cn1cc(-c2ccc(Cl)c(Cl)c2)nn1 [Compound 12c, (S)-1-(4-(3,4-Dichlorophenyl)-1H-1,2,3-triazol-1-yl)-3-(1H-indol-3-yl)propan-2-amine]	–	61.5	> 50	–	IC50 (amyloid-β (1-42) peptide [4]): 83.2 µM; IC50 (β-Secretase (BACE1)): 20.7 µM; Protective effect against Aβ1-42 induced neuronal cell death (MTT viability) (SH-SY5Y cells): significantly greater than those of the potent single target compound, BACE1 inhibitor IV; also recorded: decrease cell death to a greater extent than BACE1 inhibitor IV; also recorded: better than that of single targeted ligands
